Source: patent publication US5405861A, “Triazole compounds and antifungal compositions thereof” (Takeda Chemical Industries, Co., Ltd., priority 1989, dated 1995)

Columns and labels:
[1] = system: Trichophyton rubrum IFO 6467; assay: Antifungal activity, paper disc growth inhibition zone (Table 4); type: cell-based; settings: IFO6467, 48 h, medium C (Sabouraud agar), 28° C., 2 days, disc soaked in 1000 μg/ml solution in methanol, read-out: Inhibition zone diameter
Procedure: (§1) The antifungal activities of the compounds (I) were evaluated by the following method: a sheet of filter paper disc (manufactured by Toyo Seisakusho, 8 mm in diameter) soaked in a 1000 μg/ml solution of a compound (I) in methanol was placed on an agar plate, which was incubated at 28° C. for 2 days, and the diameter of the growth inhibition zone around the filter paper disc was measured.

[2] = system: Trichophyton mentagrophytes IFO 7522; assay: as above; type: cell-based; settings: IFO7522, 48 h, medium C (Sabouraud agar), 28° C., 2 days, disc soaked in 1000 μg/ml solution in methanol, read-out: Inhibition zone diameter
Procedure: as §1

[3] = system: Microsporum gypseum IFO 6075; assay: as above; type: cell-based; settings: Nannizzia gypsea, IFO6075, 48 h; medium C (Sabouraud agar), 28° C., 2 days, disc soaked in 1000 μg/ml solution in methanol; read-out: Inhibition zone diameter
Procedure: as §1

[4] = system: Aspergillus niger IFO 4066; assay: as above; type: cell-based; settings: IFO4066, 48 h, medium A, 28° C., 2 days, disc soaked in 1000 μg/ml solution in methanol, read-out: Inhibition zone diameter
Procedure: as §1, with “measured. The following culture media were used:” for “measured.”
(§2) A: yeast nitrogen base agar medium

[5] = system: Candida albicans IFO 0583; assay: as above; type: cell-based; settings: IFO0583, 48 h, medium A, 28° C., 2 days, disc soaked in 1000 μg/ml solution in methanol, read-out: Inhibition zone diameter
Procedure: as §1, with “measured. The following culture media were used:” for “measured.”
as §2

[6] = system: Aspergillus fumigatus IFO 6344; assay: as above; type: cell-based; settings: IFO6344, 48 h, medium A, 28° C., 2 days, disc soaked in 1000 μg/ml solution in methanol, read-out: Inhibition zone diameter
Procedure: as §1, with “measured. The following culture media were used:” for “measured.”
as §2

[7] = system: Penicillium chrysogenum IFO 4626; assay: as above; type: cell-based; settings: IFO4626, 48 h, medium A, 28° C., 2 days, disc soaked in 1000 μg/ml solution in methanol, read-out: Inhibition zone diameter
Procedure: as §1, with “measured. The following culture media were used:” for “measured.”
as §2

[8] = system: Candida albicans (Ca--O) IFO 0583; assay: as above; type: cell-based; settings: IFO0583, 48 h, medium A, 28° C., 2 days, disc soaked in 1000 μg/ml solution in methanol, read-out: Inhibition zone diameter
Procedure: as §1, with “measured. The following culture media were used:” for “measured.”
as §2

[9] = system: Candida albicans (IFO 0538); assay: Antifungal activity against Candida albicans, paper disc growth inhibition zone (Tables 5 and 6); type: cell-based; settings: 48 h, pH 7, B medium (yeast nitrogen base agar, pH 7.0), 28° C., 2 days incubation; read-out: Inhibition zone diameter
Procedure: as §1, with “measured. The following culture media were used:” for “measured.”
as §2
B: yeast nitrogen base agar medium (pH 7.0)

Candida albicans = assay: Infection-preventing effect in experimental infection in mice, Method 1 (Table 7-1); type: in vivo, Crj:CDF1 mice; settings: Candida albicans, sc, 168 h, s.c., given 0 and 2 hours after infection; survival 7 days after infection; total dose; read-out: ED50
Procedure: Method 1 (Table 7-1): To 5-week-old Crj:CDF1 mice the minimum lethal dose of Candida albicans was inoculated intravenously. The test drug was given twice 0 and 2 hours after infection. The effectiveness of the drug was expressed in ED50 values calculated by the Reed and Muench method from the survival rate 7 days after infection. The ED50 values were calculated based on the total dose given on the two occasions.

Row | Structure (SMILES) | zone of inhibition at 1000 µg/mL [1] [mm] | zone of inhibition at 1000 µg/mL [2] [mm] | zone of inhibition at 1000 µg/mL [3] [mm] | zone of inhibition at 1000 µg/mL [4] [mm] | zone of inhibition at 1000 µg/mL [5] [mm] | zone of inhibition at 1000 µg/mL [6] [mm] | zone of inhibition at 1000 µg/mL [7] [mm] | zone of inhibition at 1000 µg/mL [8] [mm] | zone of inhibition at 1000 µg/mL [9] [mm] | ED50 (Candida albicans) [mg/kg]
1 | C[C@@H](Sc1nc2c(s1)CCC2)[C@](O)(Cn1cncn1)c1ccc(F)cc1F (relative stereo) [Compound 12] | 35 | 32 | 35 | 20 | 42 | 38 | 15 | 41 | 25 | 2.5
2 | C[C@@H](SCc1ccncc1)[C@](O)(Cn1cncn1)c1ccc(F)cc1F (relative stereo) [Compound 15] | 60 | 50 | 45 | 29 | 34 | 30 | 23 | 32 | 25 | 2.5
